Patent US12227511B2, “Bicyclic compounds as kinase modulators, methods and uses thereof” (Agency for Science, Technology and Research, priority 2018, dated 2025)

Legend:
[1] = test system: hepatocellular carcinoma (HCC); settings: clinical; cited from earlier work
HCCLM3 cells = assay: GI50 in HCCLM3 cells, cell viability by MTS assay; type: cell-based; settings: Homo sapiens, 72 hours incubation, triplicates, read-out: HCCLM3 activity range (GI50)
Description: To investigate the effects of compounds on hepatocellular carcinoma (HCC) cell viability, HCCLM3 cells (HCC cells with high metastatic potential) were incubated with increasing concentrations of test compounds for 72 hours. Cell viability was evaluated at the end of incubation period by MTS assay. […] All samples were evaluated in triplicates.
As set forth in Table 1 below, GI50 values are defined as follows: GI50≤10 μM (+++); GI50>10 μM and ≤20 μM (++); GI50>20 μM (+).

[2] = test system: hepatocellular carcinoma (HCC); settings: HCC patients taking Stivarga (Regorafenib); cited from earlier work
[3] = test system: hepatocellular carcinoma (HCC); settings: HCC patients, cited from earlier work

Row | GI50 (HCCLM3 cells) [µM] | SMILES | also measured
1 |  | COc1cc2nccc(Oc3ccc(NC(=O)C4(C(=O)Nc5ccc(F)cc5)CC4)cc3)c2cc1OC [Cabozantinib] | incidence of adverse events (AEs) compared to Regorafenib [1]: higher incidence of adverse events
2 | 10 to 20 | COCC12CC(NC(=O)C3(C(=O)Nc4ccc(Oc5ccnc6cc(OC)c(OC)cc56)cc4)CC3)(C1)C2 [Compound 30, N-(4-((6,7-dimethoxyquinolin-4-yl)oxy)phenyl)-N-(3-(methoxymethyl)bicyclo[1.1.1]pentan-1-yl)cyclopropane-1,1-dicarboxamide] | 
3 | ≤ 10 | COC(=O)C12CC(NC(=O)C3(C(=O)Nc4ccc(Oc5ccnc6cc(OC)c(OC)cc56)cc4)CC3)(C1)C2 [Compound 31, methyl 3-(1-((4-((6,7-dimethoxyquinolin-4-yl)oxy)phenyl)carbamoyl)cyclopropane-1-carboxamido)bicyclo[1.1.1]pentane-1-carboxylate] | 
4 | ≤ 10 | COc1cc2nccc(Oc3ccc(NC(=O)C4(C(=O)NC56CC(CO)(C5)C6)CC4)cc3)c2cc1OC [Compound 32, N-(4-((6,7-dimethoxyquinolin-4-yl)oxy)phenyl)-N-(3-(hydroxymethyl)bicyclo[1.1.1]pentan-1-yl)cyclopropane-1,1-dicarboxamide] | 
5 | 10 to 20 | COc1cc2nccc(Oc3ccc(NC(=O)C4(C(=O)NC56CC(C#N)(C5)C6)CC4)cc3)c2cc1OC [Compound 33, N-(3-cyanobicyclo[1.1.1]pentan-1-yl)-N-(4-((6,7-dimethoxyquinolin-4-yl)oxy)phenyl)cyclopropane-1,1-dicarboxamide] | 
6 | > 20 | COc1cc2nccc(Oc3ccc(NC(=O)C45CC(C(=O)NC67CCC(CC6)C7)(C4)C5)cc3)c2cc1OC [Compound 34, N1-((1s,4s)-bicyclo[2.2.1]heptan-1-yl)-N3-(4-((6,7-dimethoxyquinolin-4 yl)oxy)phenyl)bicyclo[1.1.1]pentane-1,3-dicarboxamide] | 
7 | > 20 | COc1cc2nccc(Oc3ccc(NC(=O)C45CC(C(=O)N6CC7CC7C6)(C4)C5)cc3)c2cc1OC (centres unmarked) [Compound 35, 3-(3-azabicyclo[3.1.0]hexane-3-carbonyl)-N-(4-((6,7-dimethoxyquinolin-4-yl)oxy)phenyl)bicyclo[1.1.1]pentane-1-carboxamide] | 
8 | > 20 | COc1cc2nccc(Oc3ccc(NC(=O)C45CC(C(=O)NC6CC6)(C4)C5)cc3)c2cc1OC [Compound 36, N1-cyclopropyl-N3-(4-((6,7-dimethoxyquinolin-4-yl)oxy)phenyl)bicyclo[1.1.1]pentane-1,3-dicarboxamide] | 
9 |  | CNC(=O)c1cc(Oc2ccc(NC(=O)Nc3ccc(Cl)c(C(F)(F)F)c3)c(F)c2)ccn1 [Regorafenib] | median overall survival [2]: about 10.6 months
10 |  | CNC(=O)c1cc(Oc2ccc(NC(=O)Nc3ccc(Cl)c(C(F)(F)F)c3)cc2)ccn1 [Sorafenib] | increase of survival rate compared to a placebo ([3]; Sorafenib vs placebo): 2.8 months; median survival rate ([3]; Sorafenib): about 10.7 months
